The source of these data is ChEMBL document CHEMBL1201862, “PubChem BioAssay data set” (2004).

Some test systems named below: 786-0; HCC 2998; UO-31; HCT-15; SK-MEL-5; SK-OV-3; SN12C; SK-MEL-2; SW-620; OVCAR-4; RXF 393; Malme-3M; OVCAR-8; UACC-257; NCI-H460; EKVX; T47D; PC-3; DU-145.
Assay in all cases: inhibition of tumour cell growth, NCI panel, 48 h

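Tested at 5 concentrations; 48 h exposure; 96-well plates; endpoints linearly interpolated, else capped at highest concentration. At the GI50, growth is halved.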 Active and inactive are the calls of the source. Cut-off read from the data, not from the text of the source: active = GI50 up to about 1.1 µM and inactive = higher.

Consider `O=C1C2C3CC4C5C3C1C5C1(SCCS1)C42` (stereo not drawn), for which the GI50 with 786-0 is > 100 µM (inactive); in the assay on HCC 2998, > 100 µM (inactive); in the assay on UO-31 it was > 100 µM (inactive); in the assay with HCT-15, over 100 µM; in the assay with SK-MEL-5 it was > 100 µM (inactive); in the assay with SK-OV-3 it was > 100 µM (inactive). The GI50 in the assay on SN12C, with SK-MEL-2, in the assay with SW-620, in the assay with OVCAR-4, in the assay with RXF 393 and in the assay with Malme-3M was > 100 µM (inactive) throughout. Moreover, the GI50 in the assay on OVCAR-8, in the assay on UACC-257 and in the assay on NCI-H460 was > 100 µM (inactive) each time.
Consider `CCCCNC(=O)NNC(=O)c1cc(/C=C/c2cccc([N+](=O)[O-])c2)ncn1`, for which the GI50 is > 100 µM (inactive) in the assay with 786-0; > 100 µM (inactive) in the assay on HCC 2998; > 100 µM (inactive) with UO-31; 87.3 µM in the assay on HCT-15; > 100 µM (inactive) in the assay with SK-MEL-5; > 100 µM (inactive) in the assay on SK-OV-3. The GI50 with SN12C is > 100 µM (inactive); with SK-MEL-2 it was > 100 µM (inactive); with SW-620, 16.7 µM (inactive); in the assay on RXF 393, > 100 µM (inactive); in the assay on Malme-3M, > 100 µM (inactive); in the assay on OVCAR-8, > 100 µM (inactive). Further, the GI50 in the assay on EKVX, with UACC-257 and with NCI-H460 was > 100 µM (inactive) each time.
In the case of `O=C(Nc1ccc(C(F)(F)F)cc1[N+](=O)[O-])C(=O)C(C(=O)c1ccc2ccccc2c1)C1OC(=O)c2ccccc21` (stereo not drawn), the GI50 in the assay with 786-0 was 5.56 µM (inactive); in the assay on HCC 2998 it was 5.89 µM (inactive); in the assay on UO-31, 13.8 µM (inactive); in the assay on HCT-15, 8.81 µM; in the assay on SK-MEL-5, 6.76 µM (inactive); in the assay with SK-OV-3, 26.5 µM (inactive). Further, the GI50 in the assay on SN12C is 12.9 µM (inactive); in the assay on SK-MEL-2, 13 µM (inactive); in the assay on SW-620, 4.78 µM (inactive); in the assay on OVCAR-4 it was 20.6 µM (inactive); in the assay with RXF 393 it was 2.94 µM (inactive); in the assay with Malme-3M, 11.6 µM (inactive). For the same molecule, the GI50 in the assay with OVCAR-8 is 5.07 µM (inactive); with EKVX it was 3.32 µM (inactive); with UACC-257, 10.1 µM (inactive); with NCI-H460 it was 3.81 µM (inactive).
For `COc1cc2ccc3c4cc(OC)c(OC)cc4c[n+](C)c3c2cc1O`, the GI50 is > 100 µM (inactive) with 786-0; > 100 µM (inactive) in the assay on HCC 2998; > 100 µM (inactive) in the assay on UO-31; over 100 µM in the assay with HCT-15; > 100 µM (inactive) in the assay on SK-MEL-5; > 100 µM (inactive) in the assay on SK-OV-3. Further, the GI50 in the assay on SN12C was 2.1 µM (inactive); in the assay on SK-MEL-2, > 100 µM (inactive); in the assay with SW-620 it was > 100 µM (inactive); with OVCAR-4 it was > 81.8 µM (inactive); with RXF 393, > 100 µM (inactive); in the assay with Malme-3M it was > 100 µM (inactive). Also, the GI50 in the assay on OVCAR-8 is 32.3 µM (inactive); in the assay with EKVX, > 100 µM (inactive); in the assay on UACC-257, > 100 µM (inactive); with NCI-H460, > 26.7 µM (inactive).
On to `CCOC(=O)C(=O)Nc1cccc(Cl)c1C`, for which the GI50 with 786-0 is > 100 µM (inactive); in the assay with HCC 2998, > 100 µM (inactive); in the assay on UO-31, > 100 µM (inactive); in the assay on HCT-15 it was over 100 µM; in the assay with SK-MEL-5 it was > 100 µM (inactive); with SK-OV-3, > 100 µM (inactive). For the same molecule, the GI50 with SN12C, in the assay with SK-MEL-2, in the assay on SW-620, in the assay with OVCAR-4, in the assay with RXF 393 and with Malme-3M was > 100 µM (inactive) each time. The GI50 in the assay on OVCAR-8, in the assay on EKVX, in the assay on UACC-257 and in the assay on NCI-H460 was > 100 µM (inactive) in each case.
For `CN(C)CC/C(=N\Nc1ccccc1)c1ccccc1`, the GI50 was 23 µM (inactive) in the assay with 786-0; 12.2 µM (inactive) in the assay with HCC 2998; 6.85 µM (inactive) in the assay on UO-31; 2.88 µM in the assay with HCT-15; 17.7 µM (inactive) in the assay with SK-MEL-5; 15.3 µM (inactive) with SK-OV-3. Besides, the GI50 in the assay on SK-MEL-2 is 9.16 µM (inactive); in the assay with OVCAR-4, 3.25 µM (inactive); in the assay with RXF 393, 31.2 µM (inactive); in the assay on Malme-3M, 4.78 µM (inactive); with OVCAR-8 it was 4.35 µM (inactive); in the assay on EKVX, 15.7 µM (inactive).
In the case of `Cc1ccccc1C(=O)Oc1ccc(O)cc1`, the GI50 is > 100 µM (inactive) with 786-0; > 100 µM (inactive) with HCC 2998; > 100 µM (inactive) with UO-31; over 100 µM in the assay on HCT-15; > 100 µM (inactive) in the assay with SK-MEL-5; > 100 µM (inactive) in the assay with SK-OV-3. The GI50 in the assay on SN12C, in the assay on SK-MEL-2, with SW-620, in the assay with OVCAR-4, with RXF 393 and in the assay on Malme-3M was > 100 µM (inactive) each time. Moreover, the GI50 in the assay with OVCAR-8, in the assay on EKVX, in the assay on UACC-257 and in the assay on NCI-H460 was > 100 µM (inactive) in each case.
Take `CCCCN(CC)C(=O)C(=O)C1C(=O)Nc2ccccc2[S+]1[O-]` (stereo not drawn): the GI50 was > 100 µM (inactive) in the assay on 786-0; > 100 µM (inactive) with HCC 2998; > 100 µM (inactive) with UO-31; over 100 µM in the assay on HCT-15; > 100 µM (inactive) with SK-MEL-5; > 100 µM (inactive) in the assay with SK-OV-3. The GI50 in the assay with SN12C, with SK-MEL-2, with SW-620, in the assay on OVCAR-4, with RXF 393 and with Malme-3M was > 100 µM (inactive) throughout. Also, the GI50 with OVCAR-8 is > 100 µM (inactive); with EKVX it was 55.6 µM (inactive); with UACC-257, > 100 µM (inactive); in the assay on NCI-H460, > 100 µM (inactive).
With `Cn1c(C(C)(C)OC(=O)Oc2ccccc2)cnc1[N+](=O)[O-]`, the GI50 with 786-0 is > 100 µM (inactive); with UO-31, > 100 µM (inactive); in the assay with HCT-15 it was over 100 µM; in the assay on SK-MEL-5 it was 53.3 µM (inactive); in the assay on SK-OV-3, > 100 µM (inactive); with SN12C it was 19.7 µM (inactive). Further, the GI50 with SK-MEL-2 was > 100 µM (inactive); in the assay with T47D, > 100 µM (inactive); in the assay with SW-620 it was 72.8 µM (inactive); in the assay on OVCAR-4, 38.7 µM (inactive); in the assay on RXF 393, > 100 µM (inactive); with PC-3, > 100 µM (inactive). The GI50 in the assay with Malme-3M is 32.3 µM (inactive); with OVCAR-8, 70.6 µM (inactive); in the assay with EKVX, 42.9 µM (inactive); with UACC-257, 36 µM (inactive); in the assay on DU-145, > 100 µM (inactive); in the assay with NCI-H460, 80.9 µM (inactive).
Take `CN(/N=C\c1ccc2ccccc2c1)C1=NCCCN1`: the GI50 in the assay with 786-0 was 12.7 µM (inactive); in the assay with HCC 2998, 11.7 µM (inactive); in the assay on UO-31 it was 9.93 µM (inactive); with HCT-15, 17.7 µM; in the assay on SK-MEL-5 it was 11.9 µM (inactive); with SK-OV-3 it was 19.1 µM (inactive). The GI50 in the assay with SK-MEL-2 is 15.2 µM (inactive); in the assay on T47D, 22.6 µM (inactive); with SW-620, 12.1 µM (inactive); in the assay with OVCAR-4, 26.5 µM (inactive); in the assay with RXF 393, 14.3 µM (inactive); in the assay on Malme-3M, 13.3 µM (inactive). In addition, the GI50 in the assay on OVCAR-8 was 15.4 µM (inactive); in the assay with EKVX, 17.3 µM (inactive); in the assay with UACC-257, 10.4 µM (inactive); in the assay on DU-145, 27.4 µM (inactive); with NCI-H460, 4.7 µM (inactive).
Regarding `CC1=COC(=O)c2ccccc2N1`, the GI50 with 786-0 is > 100 µM (inactive); with HCC 2998, > 100 µM (inactive); in the assay on UO-31, > 100 µM (inactive); in the assay with HCT-15 it was over 100 µM; in the assay with SK-MEL-5, > 100 µM (inactive); in the assay on SK-OV-3, > 100 µM (inactive). Further, the GI50 with SN12C, in the assay on SK-MEL-2, with SW-620, with OVCAR-4, in the assay on RXF 393 and with Malme-3M was > 100 µM (inactive) each time. The GI50 in the assay on OVCAR-8, in the assay on EKVX and in the assay on NCI-H460 was > 100 µM (inactive) each time.
Turning to `Cc1cc(O)nc(CNC(=O)Cc2ccccc2)n1`, the GI50 was > 100 µM (inactive) in the assay with 786-0; > 100 µM (inactive) with HCC 2998; > 100 µM (inactive) with UO-31; over 100 µM in the assay with HCT-15; > 100 µM (inactive) in the assay on SK-OV-3; > 100 µM (inactive) in the assay on SN12C. Also, the GI50 in the assay on SK-MEL-2, in the assay with SW-620, in the assay with OVCAR-4, in the assay on RXF 393, with Malme-3M and with OVCAR-8 was > 100 µM (inactive) throughout. Further, the GI50 in the assay on EKVX, in the assay with UACC-257 and with NCI-H460 was > 100 µM (inactive) in each case.
As to `FC(F)(F)c1ccc(/C=N/C23CC4CC(CC(C4)C2)C3)cc1`, the GI50 was > 100 µM (inactive) in the assay on 786-0; > 100 µM (inactive) in the assay with HCC 2998; > 100 µM (inactive) in the assay on UO-31; over 100 µM with HCT-15; > 100 µM (inactive) in the assay on SK-MEL-5; > 100 µM (inactive) in the assay on SK-OV-3. Moreover, the GI50 in the assay with SN12C, with SK-MEL-2, with SW-620, with OVCAR-4, in the assay with RXF 393 and with Malme-3M was > 100 µM (inactive) in each case. Besides, the GI50 in the assay with OVCAR-8, in the assay with EKVX, with UACC-257 and in the assay on NCI-H460 was > 100 µM (inactive) each time.
